# In US12268747B2, “Polypeptides having anti-senescent effects and uses thereof” (OneSkin, Inc., priority 2019, dated 2025):
# Peptide text beside a SMILES is read from it.
# Columns and labels:
# [1] = test system: Primary fibroblasts from Progeria patients; test: Polypeptide library screen: SA-B-galactosidase senescence and cell number in Progeria fibroblasts; assay type: cell-based, human; settings: 10 μM, 48 hours
# Protocol: Primary fibroblasts isolated from Progeria patients can constitute a genetic model of early aging and cellular senescence in humans. Primary fibroblasts from Progeria patients were cultured in DMEM (Dulbecco's Modified Eagle's Medium) supplemented with 10% v.v. fetal bovine serum (FBS), and 1% v.v. of penicillin/streptomycin solution (1,000 U·mL−1). Cells were kept in a 5% CO2, 37° C. and 95% humidity atmosphere. After expansion, these cells were seeded in 96-well plates (1,000 cells per well) and, 6 hours after plating, were incubated with individual polypeptides from a proprietary library at 50 μM for 48 hours. Negative control comprised untreated cells, which received vehicle only; positive control group comprised cells incubated with 10 μM ABT-263, a senolytic compound for the same period. […] Three independent experiments including three technical replicates were performed.
# [2] = test system: human primary fibroblasts isolated from 3 healthy donors, etoposide-stressed; test: Etoposide-induced senescence in fibroblasts; assay type: cell-based; settings: etoposide 20 μM, 24 hours
# Protocol: Cellular senescence may be caused by several different stimuli. In order to assess whether Peptide 14 was effective against UVB-induced and chemically-induced senescence, human primary fibroblasts isolated from 3 healthy donors were used. These cells were cultured in DMEM (Dulbecco's Modified Eagle's Medium) supplemented with 10% v.v. fetal bovine serum (FBS), and 1% v.v. of penicillin/streptomycin solution (1,000 U·mL−1). Cells were kept in a 5% CO2, 37° C. and 95% humidity atmosphere. After expansion, these cells were seeded in 96-well plates (4,000 cells per well) and, 6 hours after plating, were submitted to either etoposide (20 μM) treatment for 24 hours, or exposed twice to 0.05 J/cm^2 of UVB radiation. […] After incubation, relative cellular senescence (assessed by the activity of senescence associated β-galactosidase staining relative to untreated control) was analyzed and plotted in column graphs. ATRX foci were also assessed following ATRX immunofluorescence staining. Graphs were built using the average ATRX foci detected per nuclei. […] Data was analyzed using with either t-test or ANOVA followed by a Bonferroni post-hoc test. Statistical significance was determined as p-values equal or lower than 0.05 (FIG. 6).
# [3] = test system: Primary fibroblasts from Progeria patients; test: Senescence (SA-β-galactosidase, ATRX foci) in Progeria fibroblasts, short sequences; assay type: cell-based, human; settings: 500 nM, 5 μM, 50 μM
# Protocol: Skin cells from Progeria patients were used as a model of aging because of the high levels of cellular senescence. Primary fibroblasts from Progeria patients were cultured in DMEM (Dulbecco's Modified Eagle's Medium) supplemented with 10% v.v. fetal bovine serum (FBS), and 1% v.v. of penicillin/streptomycin solution (1,000 U·mL−1). Cells cultured at 5% CO2, 37° C. and 95% humidity atmosphere. After expansion, the cells were seeded in 96-well plates (4,000 cells per well) and, 6 hours after plating, were incubated with 500 nM, 5 μM or 50 μM of polypeptide sequence LKGIL (SEQ ID NO: 6) or WLKGI (SEQ ID NO: 7). Negative control comprised untreated cells, which received vehicle only. After incubation, relative cellular senescence, which was assessed by the activity of senescence associated β-galactosidase staining relative to untreated control and by the quantification of ATRX foci/nuclei, was analyzed. Three independent experiments (biological replicates) including three technical replicates were performed. Data was analyzed using ANOVA and a Bonferroni post-hoc test. Statistical significance was determined as p values equal or lower than 0.05, where *p<0.05 and ** p<0.01.
# MeWo cells [4] = test: Melanin content of MeWo cells, 14 days or interrupted on 7th day; assay type: cell-based, human
# Protocol: The skin frequently may experience rebound hyperpigmentation, where pigmentation is reestablished in the skin after the discontinuation of the lightening treatment(s). To test whether the depigmentation effect of Peptide 14 remained after the Peptide 14 treatment was discontinued, MeWo cells were cultured in DMEM supplemented with 10% v/v FBS and 1% v/v of penicillin/streptomycin solution (1,000 U·mL^−1) at 5% CO2, 37° C. and 95% humidity. For two weeks prior to treatment with one of the experimental conditions (pre-treatment), the MeWo cells were cultured with isobutyl methylxanthine (IBMX) to stimulate melanin synthesis. After the MeWo cells were seeded in 6-well plates at 1,000,000 cells per well for 6 hours, the cells were incubated with one of the experimental conditions for 14 days and analyzed for intracellular and supernatant melanin content.
# The experimental conditions included a positive control group, a negative control group, a Peptide 14 (IBMX) 14 days group, a retinoic acid (IBMX) 14 days group, a Peptide 14 (IBMX) interrupted on 7th day group, and a retinoic acid (IBMX) interrupted on 7th day group. The negative control group comprised MeWo cells which were stimulated with 25 μM IBMX for 2 weeks in the pre-treatment period and then were untreated for 14 days, receiving the vehicle only, after being plated for the experiment. The positive control group comprised MeWo cells that were incubated with 25 μM IBMX during the entire experiment, for 2 weeks in the pre-treatment period and for 14 days in the treatment period. Some of the groups were treated with both IBMX 25 μM for 7 or 14 days, as well as 3.12 μM Peptide 14, or both IBMX 25 μM (for 7 or 14 days), as well as retinoic acid 2 μM. The Peptide 14 (IBMX) 14 day group comprised MeWo cells that were incubated with 25 μM IBMX 2 weeks in the pre-treatment period and then treated for 14 days with 25 μM IBMX and 3.12 μM Peptide 14. The retinoic acid (IBMX) 14 day group comprised MeWo cells that were incubated with 25 μM IBMX 2 weeks in the pre-treatment period and then treated for 14 days with 25 μM IBMX and 2 μM retinoic acid. […]
# After treatment, the melanin content in the cell pellet and the cell culture supernatant was assessed by the absorbance of the samples at 492 nm. […] Data are presented as relative melanin content, absorbance of the samples at a specified wavelength (492 nm) normalized to the […] absorbance of the negative control samples also as the same wavelength. […] The data were analyzed using ANOVA and Bonferroni post-hoc test when a statistical significance was detected. […]
# MeWo cells [5] = test: Melanin content of MeWo cells, 7 days treatment; assay type: cell-based, human; settings: 7 days after 14 day IBMX pre-treatment; Peptide 14 3.12 μM or retinoic acid 2 μM with 25 μM IBMX; positive control 25 μM IBMX
# Protocol: To test whether Peptide 14 promotes depigmentation of melanocytes, MeWo cells were cultured in DMEM supplemented with 10% v/v FBS and 1% v/v of penicillin/streptomycin solution (1,000 U·mL^−1) at 5% CO2, 37° C. and 95% humidity. For two weeks prior to treatment with one of the experimental conditions (pre-treatment), the MeWo cells were cultured with isobutyl methylxanthine (IBMX) to stimulate melanin synthesis. After the MeWo cells were seeded in 6-well plates at 1,000,000 cells per well for 6 hours, the cells were incubated with one of the experimental conditions for 7 days and analyzed for intracellular and supernatant melanin content.
# The experimental conditions included a positive control group, a negative control group, a Peptide 14 (IBMX) 7d group, and a retinoic acid (IBMX) 7d group. […]
# After treatment, the melanin content in the cell pellet and the cell culture supernatant was assessed by the absorbance of the samples at 492 nm. […] Data are presented as relative melanin content, absorbance of the samples at a specified wavelength (492 nm) normalized to the absorbance of the negative control samples also as the same wavelength. […] The data were analyzed using ANOVA and Bonferroni post-hoc test when a statistical significance was detected. […]
# [6] = test system: Primary fibroblasts isolated from 3 healthy chronologically aged patients; test: SA-B-galactosidase senescence in fibroblasts of aged donors, concentration series; assay type: cell-based, human; settings: 1.56-50 μM (Peptide 16: 1.56-25 μM), 48 hours; in at least one of the tested concentrations
# Protocol: Primary fibroblasts isolated from 3 healthy chronologically aged patients were used. Cells were cultured in DMEM (Dulbecco's Modified Eagle's Medium) supplemented with 10% v.v. fetal bovine serum (FBS), and 1% v.v. of penicillin/streptomycin solution (1,000 U·mL−1). Cells were kept in a 5% CO2, 37° C. and 95% humidity atmosphere. After expansion, these cells were seeded in 96-well plates (4,000 cells per well) and, 6 hours after plating the cells were treated with one of 4 senotherapeutic polypeptides (Peptide 14, Peptide 13, Peptide 15, and Peptide 16) and incubated for 48 hours. Each polypeptide was tested at 6 different concentrations: 50 μM, 25 μM, 12.5 μM, 6.25 μM, 3.12 μM, and 1.56 μM, except for Peptide 16, which was tested at 5 different concentrations: 25 μM, 12.5 μM, 6.25 μM, 3.12 μM, and 1.56 μM. A negative control comprised untreated cells, which received vehicle only. After incubation, relative cellular senescence (assessed by the activity of senescence associated B-galactosidase staining relative to untreated control) was analyzed (FIG. 2, panels A-D), in which the Y axis indicates the relative senescence levels normalized to untreated control. Each column corresponds to a different concentration of a polypeptide. Three independent experiments (biological replicates) including three technical replicates were performed. Data was analyzed using Analysis of Variance (ANOVA) and a Bonferroni post-hoc tests. Statistical significance was determined as p values equal or lower than 0.05.
# [7] = 7 day treatment, then 7 days 25 μM IBMX only
molecule,measurement,setting,value
CC1(C)CCC(c2ccc(Cl)cc2)=C(CN2CCN(c3ccc(C(=O)NS(=O)(=O)c4ccc(N[C@H](CCN5CCOCC5)CSc5ccccc5)c(S(=O)(=O)C(F)(F)F)c4)cc3)CC2)C1 [ABT-263],cellular toxicity (cell number),[1],cellular toxicity
same,cellular senescence (SA-B-galactosidase staining),[1]; positive control,significant reduction
"COc1cc([C@@H]2c3cc4c(cc3[C@@H](O[C@@H]3O[C@@H]5CO[C@@H](C)O[C@H]5[C@H](O)[C@H]3O)[C@H]3COC(=O)[C@H]23)OCO4)cc(OC)c1O [Etoposide, etoposide]",ATRX foci nuclear accumulation (average ATRX foci/cell),[2],significant increase
same,cellular senescence level,[2],significant increase
CC[C@H](C)[C@H](NC(=O)CNC(=O)[C@H](CCCCN)NC(=O)[C@@H](N)CC(C)C)C(=O)N[C@@H](CC(C)C)C(=O)O [LKGIL] (H-LKGIL-OH; N-terminus and C-terminus assumed),cellular toxicity (relative cell number),[3],No cellular toxicity
CC[C@H](C)[C@H](NC(=O)CNC(=O)[C@H](CCCCN)NC(=O)[C@H](CC(C)C)NC(=O)[C@@H](N)Cc1c[nH]c2ccccc12)C(=O)O [WLKGI] (H-WLKGI-OH; N-terminus and C-terminus assumed),cellular toxicity (relative cell number),[3],No cellular toxicity
CC1=C(/C=C/C(C)=C/C=C/C(C)=C/C(=O)O)C(C)(C)CCC1 [retinoic acid],"relative melanin content, cell culture supernatant",MeWo cells [4]; [7],about 100%
same,"relative melanin content, cell pellet",MeWo cells [4]; [7],about 90%
same,"relative melanin content, cell pellet","MeWo cells [4]; 14 day treatment, Peptide 14 3.12 μM or retinoic acid 2 μM with 25 μM IBMX, positive control 25 μM IBMX, normalized to cell number and negative control",about 130%
same,"relative melanin content, cell culture supernatant","MeWo cells [4]; 14 day treatment, positive control 25 μM IBMX",about 50%
same,"relative melanin content, cell pellet",MeWo cells [5],about 125 % of the negative control group
KLKGILRGAA [Peptide 15],relative cellular senescence (SA-B-galactosidase staining) vs untreated control,[6],senotherapeutic effects
WLKGILREAA [Peptide 16],relative cellular senescence (SA-B-galactosidase staining) vs untreated control,[6],senotherapeutic effects
